In ChEMBL document CHEMBL1147286, “7-O-methylhorminone and other cytotoxic diterpene quinones from Lepechinia bullata” (1989) one finds EC50 data, which are given here for three compounds.

One experiment has as its system P388. The experiment in a line: Cytotoxicity against mouse P388 cells. The experiment is classed as functional. As to conditions: read-out: ED50 (the source's name).
Another experiment deals with KB. The experiment in a line: Cytotoxicity against human KB cells. The experiment is classed as functional. As to conditions: read-out: ED50 (the source's name).

Values after ≈ are worked out from the molar mass of the structure shown.

In the case of `CO[C@@H]1C[C@H]2C(C)(C)CCC[C@]2(C)C2=C1C(=O)C(C(C)C)=C(O)C2=O`, the EC50 was determined as 4.8 µg/mL (≈ 13.9 µM) in the experiment with P388 and 13 µg/mL (≈ 37.5 µM) in the experiment with KB.

`CC(C)C1=C(O)C(=O)C2=C(C1=O)[C@H](O)C[C@H]1C(C)(C)CCC[C@]21C` [HORMINONE]: the EC50 amounted to 4.6 µg/mL (≈ 13.8 µM) in the experiment on P388 and 20.2 µg/mL (≈ 60.8 µM) in the experiment with KB.

Turning to `CC(C)C1=C(O)C(=O)C2=C(C=C[C@H]3C(C)(C)CCC[C@]23C)C1=O`, the figures for the EC50 in the experiment on P388 and with KB were 1.6 µg/mL (≈ 5.09 µM) and 5.7 µg/mL (≈ 18.1 µM), respectively.
